Experimental data reported in US11291663B2, “Methods of treating cancer with farnesyltransferase inhibitors” (Kura Oncology, Inc., priority 2017, dated 2022).

What was measured:
Type in all cases: in vivo, human
relapsed/refractory AML = assay: Study AMLCG 1999, AraC based chemotherapy by CXCR4/CXCR2 expression ratio; details: relapsed/refractory AML subjects
From the text: FIG. 11B. Progression free survival (PFS) probabilities over time (days) for relapsed/refractory AML subjects in study AMLCG 1999 receiving AraC based chemotherapy with relative CXCR4/CXCR2 expression ratios.

[1] = tested on: elderly patients with newly diagnosed, de novo, or secondary AML; assay: Ph3 study AML301, tipifarnib versus BSC
Procedure: (§1) Clinical studies with tipifarnib were performed in newly diagnosed elderly patients with poor risk AML (CTEP-20, Phase 2) and relapsed and refractory AML (INT-17, Phase 2). Patient selection in these studies was not based on genetic markers. Anecdotal evidence of tipifarnib single agent activity was reported. […] Median OS in the overall study was 107 days for the Tipifarnib group and 109 days for the BSC group in AML301.
AML patients with low percentage of circulating blood blasts (<1 and <10%) and high percentage of bone marrow blasts (>40%) receive clinical benefit from tipifarnib treatment in terms of progression free survival (PFS, CTEP20) or survival (AML301). […] AML301 patients N=82 (18% of study size), HR=0.58, 109 (BSC) vs 201 (tipifarnib) days, P=0.019.
FIGS. 3A-H show results from a clinical tipifarnib trial for subsets of elderly or frail AML patients (AML-301) with varying degrees of neutropenia. […] FIGS. 3B-3F show survival probabilities in AML patient subsets with WBCs>2.1×10^9 cells/L and ANC<1.2×10^9 cells/L (FIG. 3B), ANC<1.0 (FIG. 3C), ANC<0.8 (FIG. 3D), ANC<0.6 (FIG. 3E) and ANC<0.4 (FIG. 3F).

[2] = tested on: newly diagnosed elderly patients with poor risk AML; assay: Phase 2 study CTEP-20 of tipifarnib
Procedure: as §1
FIG. 7. (A) PFS probabilities of previously untreated elderly or unfit AML subjects with a high CXCR4/CXCR2 ratio versus the rest of the patients enrolled in study CTEP-20. Outcome and expression data are available for 34 study subjects. Median survival of subjects with a bone marrow CXCR4/CXCR2 expression ratio in the upper quartile was 406 days versus 67 days in quartiles 1st-3rd, HR=0.44, p=0.09. Median overall PFS was 84 days. (B) Survival probabilities of previously untreated elderly or unfit AML subjects with a high CXCR4/CXCR2 ratio versus the rest of the patients in study CTEP-20. Median survival of subjects with a bone marrow CXCR4/CXCR2 expression ratio in the upper quartile was 728 days versus 179 days in quartiles 1st-3rd, HR=0.26, p=0.07. Median overall survival was 233 days.

[3] = tested on: relapsed and refractory AML; assay: Phase 2 study INT-17 of tipifarnib
Procedure: as §1
FIGS. 6A and 6B show graphs illustrating results from a tipifarnib trial with relapsed or refractory AML subjects (INT-17 R/R AML). […] The bone marrow of refractory AML subjects was generally found to express low levels of CXCL12. A small subset of subjects (˜15%) presented high levels of CXCR4, bone marrow homing of tumor cells and sensitivity to tipifarnib. FIG. 6A illustrates relative counts of blood blasts in relapsed or refractory AML patients stratified based on CXCR4 expression levels. […] FIG. 6B illustrates PFS probabilities for relapsed or refractory AML subjects stratified based on CXCR4 expression levels. AML subjects overexpressing CXCR4 (N=8; median PFS=143 days) had better clinical outcomes than AML subjects with relatively lower levels of CXCR4 expression (N=49; median PFS=29 days).
CXCR4/CXCR2 ratio data were available for 57 subjects who experienced an overall survival of 87 days. […]

relapsed/refractory PTCL = assay: Tipifarnib in relapsed/refractory PTCL patients with available GEP; details: of 13 highly advanced relapsed/refractory PTCL patients with available GEP
From the text: (§2) CXCL12 expression alone or as a ratio of the expression to its receptor CXCR4 predicted complete response to tipifarnib treatment (p=0.08, p=0.001) (FIG. 20A). CXCL12 and the CXCL12/CXCR4 ratio also were predictive of 2 partial responses (PR) observed in 13 highly advanced relapsed/refractory PTCL patients with available GEP (p=0.009, p=0.0007) (FIG. 20B). Four objective responses and 1 tumor lysis syndrome were reported in 17 tipifarnib-treated CMML subjects with available pre-treatment BM gene expression data (FIG. 20C). CXCL12 expression (p=0.07) and the CXCL12/CXCR4 ratio (p=0.03) were predictive of those events (FIG. 20C). Only 3 CRs were reported in 58 patients with available BM gene expression data in study INT-17.

relapsed/refractory CMML = assay: Tipifarnib-treated CMML subjects (study TIP-004); details: of 17 CMML subjects with available pre-treatment BM gene expression data
From the text: FIG. 10B. Progression free survival (PFS) probabilities over time (days) for relapsed/refractory CMML subjects in study TIP-004 receiving tipifarnib with relative CXCR4/CXCR2 expression ratios. CMML patients having higher CXCR4/CXCR2 expression ratios responded better to tipifarnib treatment than those having lower CXCR4/CXCR2 expression ratios.
as §2

SMILES: Nc1ccn([C@@H]2O[C@H](CO)[C@@H](O)[C@@H]2O)c(=O)n1 [AraC]
- PFS response of patients with higher versus lower CXCR4/CXCR2 expression ratios (relapsed/refractory AML): no differently

SMILES: Cn1cncc1[C@@](N)(c1ccc(Cl)cc1)c1ccc2c(c1)c(-c1cccc(Cl)c1)cc(=O)n2C [tipifarnib]
- hazard ratio, tipifarnib versus reference therapy ([1]; ANC/WBC<0.3 and marrow blasts >60%, N=110, P=0.08): 0.67
- hazard ratio, tipifarnib versus BSC ([1]; ANC/WBC<0.4, WBC>2, platelets >20, N=135, P=0.046): 0.7
- survival probability versus Best Supportive Care ([1]; no marrow homing subset): no effect
- HR, tipifarnib versus BSC ([1]; subset with bone marrow blasts >40% and peripheral blood blasts <10%, N=82, P=0.019): 0.58
- Median survival (PFS panel A) ([2]; CXCR4/CXCR2 expression ratio quartiles 1st-3rd): 67 days
- best responses of progression of disease (PD), number of patients ([2]; of 34 pts with available BM gene expression data): 13
- HR for survival, upper quartile versus quartiles 1st-3rd of CXCR4/CXCR2 ratio ([2]; p=0.07): 0.26
- HR for PFS, upper quartile versus quartiles 1st-3rd of CXCR4/CXCR2 ratio ([2]; p=0.09): 0.44
- CRs, number of patients ([3]; of 58 patients with available BM gene expression data): 3
- HR, 5th quintile of CXCR4/CXCR2 ratio versus rest of the subjects ([3]; p=0.04): 0.52
- partial responses (PR), number of patients (relapsed/refractory PTCL): 2
- tumor lysis syndrome, number of subjects (relapsed/refractory CMML): 1
